Source: ChEMBL document CHEMBL4406832, “Discovery of novel series of 2-substituted benzo[d]oxazol-5-amine derivatives as multi-target directed ligands for the treatment of Alzheimer's disease” (Eur J Med Chem, 2019)
The source made the active and inactive calls. The calls are words filed in the database; no cut-off is given here.

Legend:
[1] = Selectivity index, ratio of IC50 for equine serum BuChE to IC50 for electric eel AChE
Cholinesterase = Cholinesterase (Equus caballus, UniProt P81908); test: Inhibition of equine serum BuChE using butyrylthiocholine iodide as substrate preincubated for 30 mins followed by substrate addition and measured for 1 min by DTNB reagent-based spectrophotometric analysis
[2] = Permeability of the compound in pH 7.4 PBS buffer incubated for 18 hrs by PAMPA-BBB assay
Acetylcholinesterase = Acetylcholinesterase (Electrophorus electricus, UniProt O42275); test: Inhibition of electric eel AChE using acetylthiocholine iodide as substrate preincubated with enzyme for 30 mins followed by substrate addition and measured for 1 min by DTNB reagent-based spectrophotometric analysis
Rattus norvegicus [3] = test: (§1) Improvement in learning and spatial memory in icv infused amyloid beta (1 to 42)-induced Wistar rat model of Alzheimer's disease assessed as increase in time spent in platform zone at 5 mg/kg, po administered daily for 7 days starting from 7 days post surgery and measured after 6 days by Morris water maze test; format: functional, organism-based
SH-SY5Y = test: Neuroprotective activity against amyloid beta (1 to 42)-induced cytotoxicity in human SH-SY5Y cells assessed as increase in cell viability at 10 to 20 uM measured after 72 hrs by MTT assay; format: functional, cell-based
Rattus norvegicus [4] = test: Cognitive enhancing effect in scopolamine-induced Wistar rat model of amnesia assessed as increase in spontaneous alteration at 5 mg/kg pretreated for 7 days followed by scopolamine challenge and measured after 30 mins by Y-maze test; format: functional, organism-based
Rattus norvegicus [5] = test: as §1, with “reduction” for “increase”, “degeneration of neuron” for “time spent”, “hippocampal region” for “platform zone”, “H and E staining-based microscopic analysis” for “Morris water maze test”; format: functional, organism-based
Rattus norvegicus [6] = test: as §1, with “number of” for “time spent in”, “crossing” for “zone”; format: functional, organism-based
Rattus norvegicus [7] = test: as §1, with “reduction” for “increase”, “disordered neuron” for “time spent”, “hippocampal region” for “platform zone”, “H and E staining-based microscopic analysis” for “Morris water maze test”; format: functional, organism-based
Rattus norvegicus [8] = test: as §1, with “reduction” for “increase”, “escape latency” for “time spent in platform zone”, “daily for 5” for “after 6”; format: functional, organism-based
[9] = target: Amyloid-beta precursor protein (Homo sapiens, UniProt P05067); test: Displacement of [125I]IMPY from human amyloid beta(1-42) aggregates incubated for 3 hrs by gamma counting analysis
Amyloid-beta precursor protein, sequence (P05067 whole entry): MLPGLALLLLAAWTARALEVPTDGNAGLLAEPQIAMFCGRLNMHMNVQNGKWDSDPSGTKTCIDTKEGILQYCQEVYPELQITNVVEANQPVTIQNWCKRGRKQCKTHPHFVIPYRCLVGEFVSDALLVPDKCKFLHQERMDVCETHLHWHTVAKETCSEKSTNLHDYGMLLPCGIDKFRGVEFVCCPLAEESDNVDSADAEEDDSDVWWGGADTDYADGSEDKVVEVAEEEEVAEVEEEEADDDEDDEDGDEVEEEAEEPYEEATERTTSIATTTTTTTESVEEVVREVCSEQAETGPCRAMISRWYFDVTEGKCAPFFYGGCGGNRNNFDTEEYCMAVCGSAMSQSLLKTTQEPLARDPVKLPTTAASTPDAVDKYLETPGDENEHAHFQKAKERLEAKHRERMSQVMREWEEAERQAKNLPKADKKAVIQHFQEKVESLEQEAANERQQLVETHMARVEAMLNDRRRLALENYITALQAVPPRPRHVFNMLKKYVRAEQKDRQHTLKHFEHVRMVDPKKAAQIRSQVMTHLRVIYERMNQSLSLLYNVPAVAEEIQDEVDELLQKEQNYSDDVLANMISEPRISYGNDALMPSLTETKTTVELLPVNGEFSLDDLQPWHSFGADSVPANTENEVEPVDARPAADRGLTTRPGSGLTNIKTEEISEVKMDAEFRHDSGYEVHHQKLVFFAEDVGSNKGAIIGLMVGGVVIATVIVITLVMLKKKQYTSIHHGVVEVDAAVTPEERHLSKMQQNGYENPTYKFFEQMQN

Cholinesterase, sequence (P81908 whole entry): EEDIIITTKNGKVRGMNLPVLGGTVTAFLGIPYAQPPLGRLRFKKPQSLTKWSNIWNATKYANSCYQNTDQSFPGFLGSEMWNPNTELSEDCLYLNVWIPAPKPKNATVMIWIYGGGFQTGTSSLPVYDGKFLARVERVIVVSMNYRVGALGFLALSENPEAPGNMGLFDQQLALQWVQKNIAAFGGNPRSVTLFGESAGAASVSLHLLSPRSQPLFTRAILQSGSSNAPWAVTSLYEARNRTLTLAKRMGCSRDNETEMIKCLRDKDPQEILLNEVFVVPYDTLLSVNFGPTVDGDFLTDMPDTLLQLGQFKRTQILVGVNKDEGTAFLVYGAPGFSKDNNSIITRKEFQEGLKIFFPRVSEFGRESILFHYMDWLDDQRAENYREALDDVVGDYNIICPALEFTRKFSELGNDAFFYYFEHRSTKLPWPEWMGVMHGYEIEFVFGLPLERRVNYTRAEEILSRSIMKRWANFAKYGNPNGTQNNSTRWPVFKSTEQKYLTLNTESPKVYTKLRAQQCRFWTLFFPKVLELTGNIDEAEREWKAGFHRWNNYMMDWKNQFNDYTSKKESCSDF
Acetylcholinesterase, sequence (O42275 whole entry, the tested form may be a part): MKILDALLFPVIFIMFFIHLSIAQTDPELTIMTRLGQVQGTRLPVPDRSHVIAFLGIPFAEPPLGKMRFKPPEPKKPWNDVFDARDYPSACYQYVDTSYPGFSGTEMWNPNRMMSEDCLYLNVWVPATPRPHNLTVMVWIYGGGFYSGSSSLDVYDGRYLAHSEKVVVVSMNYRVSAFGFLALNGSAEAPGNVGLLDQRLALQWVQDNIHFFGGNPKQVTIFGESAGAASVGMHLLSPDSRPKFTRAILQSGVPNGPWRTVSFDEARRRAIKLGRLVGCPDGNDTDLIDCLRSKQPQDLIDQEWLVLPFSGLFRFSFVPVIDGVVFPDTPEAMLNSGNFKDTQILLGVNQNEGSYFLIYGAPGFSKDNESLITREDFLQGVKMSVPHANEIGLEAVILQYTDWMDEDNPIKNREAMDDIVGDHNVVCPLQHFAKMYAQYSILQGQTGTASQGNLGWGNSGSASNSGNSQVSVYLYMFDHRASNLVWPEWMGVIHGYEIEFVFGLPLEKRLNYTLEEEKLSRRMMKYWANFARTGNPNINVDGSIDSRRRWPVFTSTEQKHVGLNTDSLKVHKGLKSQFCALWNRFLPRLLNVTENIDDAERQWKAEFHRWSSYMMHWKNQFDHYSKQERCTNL

| SMILES | Ratio IC50 [1] | IC50 (Cholinesterase) | Papp at 18 h [2] | IC50 (Acetylcholinesterase) | other results |
| --- | --- | --- | --- | --- | --- |
| COc1ccc(CN2CCN(c3nc4cc(N)ccc4o3)CC2)cc1 | 8.4 | 6330 nM | 9.49 ×10⁻⁶ cm/s | 748 nM |  |
| COc1cccc(C(=O)N2CCN(c3nc4cc(N)ccc4o3)CC2)c1 | 21.3 | 11700 nM | 9.54 ×10⁻⁶ cm/s | 550 nM |  |
| COc1ccc(Cl)cc1C(=O)N1CCN(c2nc3cc(N)ccc3o2)CC1 | 4.2 | 1360 nM | 8.82 ×10⁻⁶ cm/s | 321 nM |  |
| Nc1ccc2oc(N3CCN(C(=O)c4ccccc4Br)CC3)nc2c1 | 13.9 | 6190 nM | 10.6 ×10⁻⁶ cm/s | 445 nM |  |
| Cc1ccc(N2CCN(c3nc4cc(N)ccc4o3)CC2)cc1 | 2.1 | 9010 nM | 10.4 ×10⁻⁶ cm/s | 4180 nM |  |
| COc1cc2c(cc1OC)C(=O)C(CC1CCN(Cc3ccccc3)CC1)C2 (stereo not given) |  |  |  |  | Activity (Rattus norvegicus [3]): Active; Activity (SH-SY5Y): Active; Activity (Rattus norvegicus [4]): Active; Activity (Rattus norvegicus [5]): Active; Activity (Rattus norvegicus [6]): Active; Activity (Rattus norvegicus [7]): Active; Activity (Rattus norvegicus [8]): Active |
| CN(C)c1ccc(-c2nc3cc([125I])ccc3o2)cn1 |  |  |  |  | Ki [9]: 6.9 nM |
| Nc1ccc2oc(N3CCCCC3)nc2c1 |  | 24200 nM |  | 5680 nM |  |
| Nc1ccc2oc(N3CCN(C(=O)c4ccc5c(c4)OCO5)CC3)nc2c1 | 2.4 | 1520 nM | 9.64 ×10⁻⁶ cm/s | 616 nM |  |
| COc1ccc(N2CCN(c3nc4cc(N)ccc4o3)CC2)cc1 | 6.1 | 13000 nM | 10.5 ×10⁻⁶ cm/s | 2100 nM |  |
| Nc1ccc2oc(N3CCN(Cc4ccccc4)CC3)nc2c1 | 7.3 | 6760 nM | 10.2 ×10⁻⁶ cm/s | 921 nM |  |
| Nc1ccc2oc(N3CCN(Cc4ccc(F)cc4)CC3)nc2c1 | 5.9 | 3110 nM | 10.5 ×10⁻⁶ cm/s | 525 nM |  |
| Cc1ccc(CN2CCN(c3nc4cc(N)ccc4o3)CC2)cc1 | 6.4 | 5190 nM | 10.6 ×10⁻⁶ cm/s | 807 nM |  |
| Nc1ccc2oc(N3CCN(C(=O)c4cccc(Br)c4)CC3)nc2c1 | 16.4 | 2680 nM | 10.5 ×10⁻⁶ cm/s | 163 nM |  |
| Nc1ccc2oc(N3CCN(CCc4ccccc4)CC3)nc2c1 | 2.4 | 957 nM | 13.4 ×10⁻⁶ cm/s | 393 nM |  |
| Nc1ccc2oc(N3CCN(Cc4ccc(Br)cc4)CC3)nc2c1 | 7.8 | 2970 nM | 11.3 ×10⁻⁶ cm/s | 379 nM |  |
| Nc1ccc2oc(N3CCN(c4ccc(Br)cc4)CC3)nc2c1 | 8.3 | 8760 nM | 10.5 ×10⁻⁶ cm/s | 1050 nM |  |
| Nc1ccc2oc(N3CCN(C(=O)c4ccc(Cl)cc4)CC3)nc2c1 | 30.4 | 3320 nM | 10.4 ×10⁻⁶ cm/s | 109 nM |  |
